Counter-ions that a name gives are not always drawn. Like-named read-outs stand apart in the source and are kept apart here.
Tests used:
[1] = test system: iCell endothelial cells (human iPSC-derived ECs); test: Tube formation (tubulogenesis) assay in iCell endothelial cells, 18 h; format: cell-based; settings: Homo sapiens, Endothelial cell, 18 hr; for activity at 0.1 µM: 0.10 µM
Method in brief: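 Tube formation was measured by calcein AM imaging after overnight compound exposure (37°C, 0.5% DMSO vehicle) of human iPSC-derived ECs, 7,500/well, on reduced-growth-factor Geltrex in starvation medium. Vehicle-normalized data fitted to four-parameter logistic; POD set at one vehicle SD; without response, 100 μM taken as NOAEL.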

[2] = test system: iCell endothelial cells (human iPSC-derived ECs); test: High-content imaging cytotoxicity in iCell endothelial cells, 24 h; format: cell-based; settings: Homo sapiens, Endothelial cell, 24 hr; for viability at 0.1 µM / activity at 0.1 µM: 0.10 µM
Method in brief: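 Readouts were vehicle-normalised and fitted to a four-parameter logistic model. POD was set at one SD beyond 0.5% DMSO control means, and 100 µM was assigned when no response was seen. Cells were monolayers of iCell endothelial cells imaged after 24 h compound exposure using nuclear, mitochondrial and calcein dyes.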

[3] = iPSC-EC tube formation, 0.00 µM control = 100.00, read-out: endo.mtl.18hr
[4] = iPSC-EC tube formation, 0.00 µM control = 100.00, read-out: endo.tlps.18hr
[5] = iPSC-EC tube formation, 0.00 µM control = 100.00, read-out: endo.tta.18hr
[6] = iPSC-EC tube formation, 0.00 µM control = 100.00, read-out: endo.ttl.18hr
[7] = iPSC-EC, 0.00 µM control = 100.00, read-out: endo.cyto.24hr
[8] = iPSC-EC, 0.00 µM control = 100.00, read-out: endo.mito.24hr
[9] = iPSC-EC, 0.00 µM control = 100.00, read-out: endo.mitoint.24hr
[10] = iPSC-EC, 0.00 µM control = 100.00, read-out: endo.nma.24hr
[11] = iPSC-EC, 0.00 µM control = 100.00, read-out: endo.tc.24hrs
[12] = endothelial cells (endo), tube formation mtl, read-out: POD endo.mtl.18hr
[13] = endothelial cells (endo), tube formation tlps, read-out: POD endo.tlps.18hr
[14] = endothelial cells (endo), tube formation tta, read-out: POD endo.tta.18hr
[15] = endothelial cells (endo), tube formation ttl, read-out: POD endo.ttl.18hr
[16] = endothelial cells (endo), cyto, read-out: POD endo.cyto.24hr
[17] = endothelial cells (endo), mito, read-out: POD endo.mito.24hr
[18] = endothelial cells (endo), mitoint, read-out: POD endo.mitoint.24hr
[19] = endothelial cells (endo), nma, read-out: POD endo.nma.24hr
[20] = endothelial cells (endo), tc, read-out: POD endo.tc.24hr

## Oc1ccc(-c2cccc(Cl)c2)cc1Cl [4-OH PCB11]
[1]; [3]
  activity at 0.01 µM: 108%
  activity at 0.1 µM: 111%
  activity at 1 µM: 106%
  activity at 10 µM: 95.5%
  activity at 100 µM: 52.6%
[1]; [4]
  activity at 0.01 µM: 105%
  activity at 0.1 µM: 99.3%
  activity at 1 µM: 114%
  activity at 10 µM: 119%
  activity at 100 µM: 14.8%
[1]; [5]
  activity at 0.01 µM: 164%
  activity at 0.1 µM: 131%
  activity at 1 µM: 144%
  activity at 10 µM: 87.6%
  activity at 100 µM: 9.99%
[1]; [6]
  activity at 0.01 µM: 164%
  activity at 0.1 µM: 135%
  activity at 1 µM: 144%
  activity at 10 µM: 85.5%
  activity at 100 µM: 11.5%
[1]; iPSC-EC tube formation, top concentration 100.00 µM, read-out: endo.mtl.18hr POD
  minimal effective concentration: 17.7 µM
[1]; iPSC-EC tube formation, top concentration 100.00 µM, read-out: endo.tlps.18hr POD
  minimal effective concentration: 52.5 µM
[1]; iPSC-EC tube formation, top concentration 100.00 µM, read-out: endo.tta.18hr POD
  minimal effective concentration: 15.8 µM
[1]; iPSC-EC tube formation, top concentration 100.00 µM, read-out: endo.ttl.18hr POD
  minimal effective concentration: 16.1 µM
[2]; [7]
  viability at 0.01 µM: 99.5%
  viability at 0.1 µM: 102%
  viability at 1 µM: 97.1%
  viability at 10 µM: 106%
  viability at 100 µM: 57.3%
[2]; [8]
  activity at 0.01 µM: 99.5%
  activity at 0.1 µM: 102%
  activity at 1 µM: 96.8%
  activity at 10 µM: 106%
  activity at 100 µM: 52.7%
[2]; [9]
  activity at 0.01 µM: 103%
  activity at 0.1 µM: 94.9%
  activity at 1 µM: 97.1%
  activity at 10 µM: 92.4%
  activity at 100 µM: 68%
[2]; [10]
  activity at 0.01 µM: 103%
  activity at 0.1 µM: 99.2%
  activity at 1 µM: 102%
  activity at 10 µM: 97.2%
  activity at 100 µM: 88%
[2]; [11]
  viability at 0.01 µM: 99.5%
  viability at 0.1 µM: 102%
  viability at 1 µM: 97.1%
  viability at 10 µM: 106%
  viability at 100 µM: 78.1%
[2]; iPSC-EC, top concentration 100.00 µM, read-out: endo.cyto.24hr POD
  minimal effective concentration: 43.6 µM
[2]; iPSC-EC, top concentration 100.00 µM, read-out: endo.mito.24hr POD
  minimal effective concentration: 43.6 µM
[2]; iPSC-EC, top concentration 100.00 µM, read-out: endo.mitoint.24hr POD
  minimal effective concentration: 13 µM
[2]; iPSC-EC, top concentration 100.00 µM, read-out: endo.nma.24hr POD
  minimal effective concentration: 9.66 µM
[2]; iPSC-EC, top concentration 100.00 µM, read-out: endo.tc.24hrs POD
  minimal effective concentration: 62.1 µM

## O=S(=O)(O)Oc1cccc(-c2ccc(Cl)cc2)c1 [3'-PCB 3 sulfate]
[1]; [12]
  minimal effective concentration: 0.58 µM
[1]; [13]
  minimal effective concentration: 38.6 µM
[1]; [14]
  minimal effective concentration: 11.6 µM
[1]; [15]
  minimal effective concentration: 8.75 µM
[2]; [16]
  minimal effective concentration: 100 µM
[2]; [17]
  minimal effective concentration: 100 µM
[2]; [18]
  minimal effective concentration: 100 µM
[2]; [19]
  minimal effective concentration: 100 µM
[2]; [20]
  minimal effective concentration: 100 µM

## Oc1cccc(-c2ccc(Cl)cc2)c1 [3'-OH-PCB 3]
[1]; [12]
  minimal effective concentration: 0.36 µM
[1]; [13]
  minimal effective concentration: 1.03 µM
[1]; [14]
  minimal effective concentration: 0.49 µM
[1]; [15]
  minimal effective concentration: 0.51 µM
[2]; [16]
  minimal effective concentration: 45.8 µM
[2]; [17]
  minimal effective concentration: 45.8 µM
[2]; [18]
  minimal effective concentration: 100 µM
[2]; [19]
  minimal effective concentration: 9.75 µM
[2]; [20]
  minimal effective concentration: 53.2 µM

From paper PMC7377239, “Cardiovascular Effects of Polychlorinated Biphenyls and Their Major Metabolites” (Environmental Health Perspectives, 2020)
